# Biological target: human C5aR (Homo sapiens (Human), UniProt P21730)
# Assay: FLIPR assay: inhibition of C5a-mediated calcium mobilization
# Assay type: cell-based
# Settings: stable cell line over expressing human C5aR & Gα15, human C5a at EC50 (0.1-0.25 nM)
# Method: Compounds were tested for their ability to inhibit C5a-mediated calcium mobilization using a stable cell line over expressing the human C5aR & the Gα15 protein on the FLIPR (Fluorescent Imaging Plate Reader) Tetra system. Cells were maintained in culture media containing DMEM (Dulbecco's Modified Eagle Medium) with 4.5 g/L glucose, 10% fetal bovine serum, 100 U/mL, 1× non-essential amino acid, and 250 μg/mL G418 (Geneticin). Prior to testing of compounds, cells were plated at 10,000 cells/well in clear bottom 384-well black plate, and incubated overnight at 37° C. with 5% CO2. On the day of experiment, culture media was removed, and replaced with assay buffer HBSS (Hanks' Balanced Salt Solution) with 20 mM HEPES (4-(2-hydroxyethyl)-1-piperazineethanesulfonic acid) and 0.1% BSA (bovine serum albumin) BSA containing calcium 5 dye (Molecular Devices) and 2.5 mM probenecid. After 1 hour incubation at 37° C., 5% CO2 for 60 min, cells were pre-incubated with compounds for 30 minutes at room temperature, in 1% DMSO (dimethyl sulfoxide).
# Chain of human C5aR (P21730 whole entry): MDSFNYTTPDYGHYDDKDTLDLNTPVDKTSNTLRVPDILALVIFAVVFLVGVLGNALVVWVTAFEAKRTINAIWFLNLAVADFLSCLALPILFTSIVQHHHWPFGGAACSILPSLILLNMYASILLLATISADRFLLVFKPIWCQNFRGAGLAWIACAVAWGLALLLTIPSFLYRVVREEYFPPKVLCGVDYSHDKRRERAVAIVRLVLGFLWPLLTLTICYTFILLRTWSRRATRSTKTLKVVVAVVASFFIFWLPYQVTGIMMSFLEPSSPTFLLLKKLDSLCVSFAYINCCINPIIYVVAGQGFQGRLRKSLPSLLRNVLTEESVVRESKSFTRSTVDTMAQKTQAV
row,SMILES,IC50
1,"[2H]C1([2H])c2c(C)cc(-c3c(CC)cccc3CC)nc2CC(C)N1c1cc(C(C)C)ccc1C (single isomer, unassigned) [Example 42-K, 2-(2,6-diethylphenyl)-6-(5-isopropyl-2-methylphenyl)-4,7-dimethyl-5,6,7,8-tetrahydro(5,5-^2H2)-1,6-naphthyridine]",217 nM
2,"[2H]C1([2H])c2c(C)cc(-c3c(CC)cccc3CC)nc2CC(C)N1c1cc(C(C)C)ccc1C (single isomer, unassigned) [Example 42-L, 2-(2,6-diethylphenyl)-6-(5-isopropyl-2-methylphenyl)-4,7-dimethyl-5,6,7,8-tetrahydro(5,5-^2H2)-1,6-naphthyridine]",4 nM
3,"Cc1cccc(C)c1-c1nc2c(c(N3CCCC(C)(C)C3)n1)CN(c1cc(C(C)C)nn1C)CC2 [Example 16-I, 2-(2,6-Dimethylphenyl)-4-(3,3-dimethylpiperidin-1-yl)-6-(3-isopropyl-1-methyl-1H-pyrazol-5-yl)-5,6,7,8-tetrdhydropyrido[4,3-d]pyrimidine]",48 nM
4,"Cc1ccc(C(C)C)cc1N1CCc2nc(-c3cccc4[nH]cc(C)c34)nc(N[C@@H](CO)C(C)C)c2C1 [Example 17-M, (R)-2-((6-(5-isopropyl-2-methylphenyl)-2-(3-methyl-1H-indol-4-yl)-5,6,7,8-tetrahydropyrido[4,3-d]pyrimidin-4-yl)amino)-3-methylbutan-1-ol]",30 nM
5,"Cc1ccccc1N1CCc2nc(-c3c(C)cccc3C)nc(N3CCOC(C)(C)C3)c2C1 [Example 17-Y, 4-(2-(2,6-dimethylphenyl)-6-(o-tolyl)-5,6,7,8-tetrahydropyrido[4,3-d]pyrimidin-4-yl)-2,2-dimethylmorpholine]",160 nM
6,"CO[C@H]1CCN(c2nc(-c3cccc4cnn(C)c34)nc3c2CN(c2cc(C4(C)COC4)ccc2C)CC3)CC1(C)C [Example 19-L, (S)-4-(4-methoxy-3,3-dimethylpiperidin-1-yl)-2-(1-methyl-1H-indazol-7-yl)-6-(2-methyl-5-(3-methyloxetan-3-yl)phenyl)-5,6,7,8-tetrahydropyrido[4,3-d]pyrimidine]",746 nM
7,"CO[C@H]1CCN(c2nc(-c3cccc4[nH]cc(C)c34)nc3c2CN(c2cc(C4CC4)ccc2C)CC3)CC1(C)C [Example 19-N, (S)-6-(5-cyclopropyl-2-methylphenyl)-4-(4-methoxy-3,3-dimethylpiperidin-1-yl)-2-(3-methyl-1H-indol-4-yl)-5,6,7,8-tetrahydropyrido[4,3-d]pyrimidine]",29 nM
8,"Cc1ccc(C(C)C)cc1N1CCc2nc(-c3c(C4CC4)cnc4[nH]ccc34)nc(N3CCCC(C)(C)C3)c2C1 [Example 20-D, 2-(5-Cyclopropyl-1H-pyrrolo[2,3-b]pyridin-4-yl)-4-(3,3-dimethylpiperidin-1-yl)-6-(5-isopropyl-2-methylphenyl)-5,6,7,8-tetrahydropyrido[4,3-d]pyrimidine]",164 nM
9,"CO[C@H]1C[C@H]2CC[C@@H](C1)N2c1nc(-c2c(C)cccc2C)nc2c1CN(c1cc(C3(C)COC3)ccc1C)CC2 [Example 21-X, 2-(2,6-dimethylphenyl)-4-((3-endo)-3-methoxy-8-azabicyclo[3.2.1]octan-8-yl)-6-(2-methyl-5-(3-methyloxetan-3-yl)phenyl)-5,6,7,8-tetrahydropyrido[4,3-d]pyrimidine]",308 nM
10,"Cc1c[nH]c2cccc(-c3nc4c(c(N5CCN(CC(N)=O)[C@H](C)C5)n3)CN(c3ccc(F)cc3F)CC4)c12 [Example 24-I, (R)-2-(4-(6-(2,4-difluorophenyl)-2-(3-methyl-1H-indol-4-yl)-5,6,7,8-tetrahydropyrido[4,3-d]pyrimidin-4-yl)-2-methylpiperazin-1-yl)acetamide]",464 nM
11,"COCCCOc1nc(-c2c(C)cccc2C)nc2c1CN(c1cc(C(C)C)ccc1C)CC2 [Example 39-D, 2-(2,6-Dimethylphenyl)-6-(5-isopropyl-2-methylphenyl)-4-(3-methoxypropoxy)-5,6,7,8-tetrahydropyrido[4,3-d]pyrimidine]",74 nM
12,"CCc1cccc(CC)c1-c1cc(C)c2c(n1)CCN(c1ccc(C)cc1C)C2 [Example 40-L, 2-(2,6-diethylphenyl)-6-(2,4-dimethylphenyl)-4-methyl-5,6,7,8-tetrahydro-1,6-naphthyridine]",180 nM
13,"CCn1nc(C)c(N2CCc3nc(-c4c(C)ccc5[nH]ncc45)cc(C)c3C2)c1C [Example 40-P, 6-(1-ethyl-3,5-dimethyl-1H-pyrazol-4-yl)-4-methyl-2-(5-methyl-1H-indazol-4-yl)-5,6,7,8-tetrahydro-1,6-naphthyridine]",37 nM
14,"Cc1cc(-c2c(C)ccc3[nH]ncc23)nc2c1CN(c1cc(C3CC3)nn1C)CC2 [Example 40-Q, 6-(3-cyclopropyl-1-methyl-1H-pyrazol-5-yl)-4-methyl-2-(5-methyl-1H-indazol-4-yl)-5,6,7,8-tetrahydro-1,6-naphthyridine]",868 nM
15,"Cc1ccc(C(C)C)cc1N1CCc2nc(-c3cccc4[nH]nc(C)c34)cc(C)c2C1 [Example 41-E, 6-(5-isopropyl-2-methylphenyl)-4-methyl-2-(3-methyl-1H-indazol-4-yl)-5,6,7,8-tetrahydro-1,6-naphthyridine]",21 nM
16,"COc1ccc(Cl)c(-c2cc(C)c3c(n2)CCN(c2cc(C(C)C)ccc2C)C3)c1 [Example 41-F, 2-(2-chloro-5-methoxyphenyl)-6-(5-isopropyl-2-methylphenyl)-4-methyl-5,6,7,8-tetrahydro-1,6-naphthyridine]",550 nM

# Second part, the molecule after the results:
row,IC50,SMILES
1,19 nM,"Cc1ccc(C(C)C)cc1N1CCc2nc(-c3cccc4[nH]cc(C)c34)nc(N3CCC(O)C(C)(C)C3)c2C1 (stereo not drawn) [Example 17-AI, l-(6-(5-isopropyl-2-methylphenyl)-2-(3-methyl-1H-indol-4-yl)-5,6,7,8-tetrahydropyrido[4,3-d]pyrimidin-4-yl)-3,3-dimethylpiperidin-4-ol]"
2,94 nM,"CNc1nc(-c2cccc3[nH]cc(C)c23)nc2c1CN(c1cc(C(C)C)ccc1C)CC2 [Example 17-AJ, 6-(5-isopropyl-2-methylphenyl)-N-methyl-2-(3-methyl-1H-indol-4-yl)-5,6,7,8-tetrahydropyrido[4,3-d]pyrimidin-4-amine]"
3,2 nM,"CO[C@@H]1CCN(c2nc(-c3cccc4[nH]cc(C)c34)nc3c2CN(c2cc(C(C)C)ccc2C)CC3)CC1(C)C [Example 17-AM, (R)-6-(5-Isopropyl-2-methylphenyl)-4-(4-methoxy-3,3-dimethylpiperidin-1-yl)-2-(3-methyl-1H-indol-4-yl)-5,6,7,8-tetrahydropyrido[4,3-d]pyrimidine]"
4,12 nM,"Cc1ccc(C(C)C)cc1N1CCc2nc(-c3cccc4[nH]cc(C)c34)nc(N3CCC[C@H](O)C3)c2C1 [Example 17-AV, (S)-1-(6-(5-isopropyl-2-methylphenyl)-2-(3-methyl-1H-indol-4-yl)-5,6,7,8-tetrahydropyrido[4,3-d]pyrimidin-4-yl)piperidin-3-ol]"
5,39 nM,"Cc1ccc(C(C)C)cc1N1CCc2nc(-c3cccc4[nH]cc(C)c34)nc(N3CCC[C@@H]3CO)c2C1 [Example 17-AZ, (R)-(1-(6-(5-isopropyl-2-methylphenyl)-2-(3-methyl-1H-indol-4-yl)-5,6,7,8-tetrahydropyrido[4,3-d]pyrimidin-4-yl)pyrrolidin-2-yl)methanol]"
6,415 nM,"Cc1ccc(C(C)C)cc1N1CCc2nc(-c3cccc4[nH]cc(C)c34)nc(N3CC4(COC4)C3)c2C1 [Example 17-BE, 6-(6-(5-isopropyl-2-methylphenyl)-2-(3-methyl-1H-indol-4-yl)-5,6,7,8-tetrahydropyrido[4,3-d]pyrimidin-4-yl)-2-oxa-6-azaspiro[3.3]heptanes]"
7,15 nM,"Cc1ccc(C(C)C)cc1N1CCc2nc(-c3cccc4[nH]cc(C)c34)nc(N3CC(N(C)C)C3)c2C1 [Example 17-BG, 1-(6-(5-isopropyl-2-methylphenyl)-2-(3-methyl-1H-indol-4-yl)-5,6,7,8-tetrahydropyrido[4,3-d]pyrimidin-4-yl)-N,N-dimethylazetidin-3-amine]"
8,65 nM,"CO[C@H]1CCN(c2nc(-c3ccccc3C(F)(F)F)nc3c2CN(c2cc(C4CC4)ccc2C)CC3)CC1(C)C [Example 19-K, (S)-6-(5-cyclopropyl-2-methylphenyl)-4-(4-methoxy-3,3-dimethylpiperidin-1-yl)-2-(2-(trifluoromethyl)phenyl)-5,6,7,8-tetrahydropyrido[4,3-d]pyrimidine]"
9,112 nM,"COc1ccc(Cl)cc1-c1nc2c(c(N3CCCC(C)(C)C3)n1)CN(c1cc(C(C)C)ccc1C)CC2 [Example 19-Q, 2-(5-chloro-2-methoxyphenyl)-4-(3,3-dimethylpiperidin-1-yl)-6-(5-isopropyl-2-methylphenyl)-5,6,7,8-tetrahydropyrido[4,3-d]pyrimidine]"
10,31 nM,"Cc1ccc(C)c(-c2nc3c(c(N4CCN(CC(N)=O)C[C@H]4C)n2)CN(c2cc(C(C)C)ccc2C)CC3)c1 [Example 24-C, (R)-2-(4-(2-(2,5-Dimethylphenyl)-6-(5-isopropyl-2-methylphenyl)-5,6,7,8-tetrahydropyrido[4,3-d]pyrimidin-4-yl)-3-methylpiperazin-1-yl)acetamide]"
11,23 nM,"CC(=O)N1CCN(c2nc(-c3ccccc3C(F)(F)F)nc3c2CN(c2cc(C(C)C)ccc2C)CC3)[C@H](C)C1 [Example 25-F, (R)-1-(4-(6-(5-isopropyl-2-methylphenyl)-2-(2-(trifluoromethyl)phenyl)-5,6,7,8-tetrahydropyrido[4,3-d]pyrimidin-4-yl)-3-methylpiperazin-1-yl)ethanone]"
